{
  "source": "patent US20100166603A1",
  "about": "“Powder Sterilization” (NOXILIZER, Inc., priority 2008, published 2010)",
  "key": {"[1]": {"test_system": "spores in PVP/spore mixture powder", "assay": "NO2 gas sterilization of tumbled PVP/spore mixture powder in humid air, CFU recovery", "assay_type": "cell-based", "conditions": "for spore concentration after treatment: two vials present; for CFU per 100 mg: single plates", "procedure": "A test to determine whether 100 mg of (PVP) and spore mixture powder could be sterilized using an NO2 gas sterilization process that incorporates a powder tumbling system. The NO2 used was a 10% NO2/90% N2 mixture.\nA 2.2 cm diameter circular Tyvek® pieces was likewise cut and the Tyvek® piece was placed between the cap and the silicone septum ring forming a partially breathable cap on the vials, while maintaining the self-healing characteristic of the silicone septum.\nThe colony forming units (CFU's) recovered from each spore mixture were counted. Multiple plates and dilutions from a given biological indicator (BI) were averaged.\nVials were placed into a cylindrical mesh container. The container was in turn placed into a rock polisher that was configured to spin the container and the vials therein.\nThe second vial contained 100 mg of PVP/spore mixture with 10 3 mm glass beads (weight of the beads excluded). […]\nAfter the runs, the samples were processed and CFUs were counted after approximately 48 hours of incubation at 35° C.-39° C."}, "spore population": {"test_system": "spore population", "assay": "NO2 gas exposure of powder under dry conditions (dry air diluent), spore inactivation", "assay_type": "cell-based", "conditions": "10 mg/l NO2 gas, exposure 60 to 600 minutes", "from_the_text": "FIG. 10 is a log-linear scale of population against exposure time for an experiment carried out with a dry air diluent."}, "[2]": {"conditions": "Run 2 NX1080423A, 3.0 mm, 5 beads, 0.4% NO2, humid air to 25.13 in Hg, 40 min dwell"}, "[3]": {"conditions": "Run 2 NX1080423A, 3.0 mm, 10 beads, 0.4% NO2, humid air to 25.13 in Hg, 40 min dwell"}, "[4]": {"conditions": "Run 4 NX1080424B, 3.0 mm beads, Table 4 cycle, humid air per Table 5"}, "[5]": {"conditions": "Run 5 NX1080429A, 3.0 mm beads, Table 4 cycle, humid air per Table 5"}, "[6]": {"conditions": "Run 6 NX1080429B, 3.0 mm beads, Table 4 cycle, humid air per Table 5"}, "[7]": {"conditions": "Run 7 NX1080429C, 3.0 mm beads, Table 4 cycle, humid air per Table 5"}},
  "note": "Several values for one entry are separate records, joined by “and”; a condition that tells them apart may be missing. Identical values can stand only once.",
  "data": [
    {"compound": "[O]N=O", "note": "[NO2, nitrogen dioxide]", "values": [
      {"measurement": "final spore concentration", "setting": "[1]; 0.5 mm bead samples, three pulses, 21 in Hg of humidity added", "result": "4.0×10^−1 spores/100 mg"},
      {"measurement": "spore concentration after treatment", "setting": "[1]; 0.5 mm bead samples, 17 in Hg of humidity added", "result": "1.3×10^2 spores/100 mg"},
      {"measurement": "spore concentration after treatment", "setting": "[1]; 0.5 mm bead samples, 21 in Hg of humidity added", "result": "1.8×10^3 spores/100 mg"},
      {"measurement": "spore concentration after treatment", "setting": "[1]; 0.5 mm bead samples, 23 in Hg of humidity added", "result": "3.5×10^2 spores/100 mg"},
      {"measurement": "Average per 100 mg", "setting": "[1]; Run 1 NX1080422A, 0.5 mm beads, first vial, 0.4% NO2, humid air to 25.13 in Hg, 40 min dwell", "result": "2.4 × 10^4 per 100 mg"},
      {"measurement": "Average per 100 mg", "setting": "[1]; Run 1 NX1080422A, 0.5 mm beads, second vial, 0.4% NO2, humid air to 25.13 in Hg, 40 min dwell", "result": "6.2 × 10^4 per 100 mg"},
      {"measurement": "Average per 100 mg", "setting": "[1]; [2]", "result": ">2.0 × 10^5 per 100 mg"},
      {"measurement": "CFU per 100 mg", "setting": "[1]; [2]", "result": ">2.0 × 10^5 CFU per 100 mg"},
      {"measurement": "Average per 100 mg", "setting": "[1]; [3]", "result": ">2.0 × 10^5 per 100 mg"},
      {"measurement": "CFU per 100 mg", "setting": "[1]; [3]", "result": ">2.0 × 10^5 CFU per 100 mg"},
      {"measurement": "Average per 100 mg", "setting": "[1]; Run 3 NX1080424A, 0.5 mm beads, pre-humidity 10 min, 0.2%+0.2% NO2 with humid air, 10 min dwell, cycle repeats 2", "result": "3.4 × 10^3 per 100 mg"},
      {"measurement": "Average per 100 mg", "setting": "[1]; Run 3 NX1080424A, 3.0 mm beads, pre-humidity 10 min, 0.2%+0.2% NO2 with humid air, 10 min dwell, cycle repeats 2", "result": "8.6 × 10^4 per 100 mg"},
      {"measurement": "Average per 100 mg", "setting": "[1]; Run 4 NX1080424B, 0.5 mm beads, Table 4 cycle: pre-NO2 0.4% 10 min, 0.2%+0.2% NO2, humid air per Table 5, 10 min dwell", "result": "1.8 × 10^3 per 100 mg"},
      {"measurement": "Average per 100 mg", "setting": "[1]; [4]", "result": "4.0 × 10^4 per 100 mg"},
      {"measurement": "CFU per 100 mg", "setting": "[1]; [4]", "result": "4.0 × 10^4 CFU per 100 mg and 3.2 × 10^4 CFU per 100 mg and 5.4 × 10^4 CFU per 100 mg and 3.5 × 10^5 CFU per 100 mg"},
      {"measurement": "Average per 100 mg", "setting": "[1]; Run 5 NX1080429A, 0.5 mm beads, Table 4 cycle, humid air per Table 5", "result": "3.5 × 10^2 per 100 mg"},
      {"measurement": "Average per 100 mg", "setting": "[1]; [5]", "result": "3.6 × 10^4 per 100 mg"},
      {"measurement": "CFU per 100 mg", "setting": "[1]; [5]", "result": "3.5 × 10^4 CFU per 100 mg and 3.6 × 10^4 CFU per 100 mg"},
      {"measurement": "Average per 100 mg", "setting": "[1]; Run 6 NX1080429B, 0.5 mm beads, Table 4 cycle, humid air per Table 5", "result": "1.1 × 10^2 per 100 mg"},
      {"measurement": "Average per 100 mg", "setting": "[1]; [6]", "result": "1.9 × 10^4 per 100 mg"},
      {"measurement": "CFU per 100 mg", "setting": "[1]; [6]", "result": "1.6 × 10^4 CFU per 100 mg and 1.8 × 10^4 CFU per 100 mg and 2.7 × 10^4 CFU per 100 mg"},
      {"measurement": "Average per 100 mg", "setting": "[1]; Run 7 NX1080429C, 0.5 mm beads, Table 4 cycle, humid air per Table 5", "result": "1.3 × 10^2 per 100 mg"},
      {"measurement": "Average per 100 mg", "setting": "[1]; [7]", "result": "2.3 × 10^4 per 100 mg"},
      {"measurement": "CFU per 100 mg", "setting": "[1]; [7]", "result": "2.1 × 10^4 CFU per 100 mg and 2.0 × 10^4 CFU per 100 mg and 2.9 × 10^4 CFU per 100 mg and 2.3 × 10^4 CFU per 100 mg"},
      {"measurement": "Average per 100 mg", "setting": "[1]; Run 8 NX1080501B, 0.5 mm beads, one vial, Table 4 cycle, humid air and repeats per Table 5", "result": "1.8 × 10^2 per 100 mg"},
      {"measurement": "Average per 100 mg", "setting": "[1]; Run 9 NX1080501C, 0.5 mm beads, one vial, Table 4 cycle, humid air and repeats per Table 5", "result": "3.3 × 10^1 per 100 mg"},
      {"measurement": "Average per 100 mg", "setting": "[1]; Run 10 NX1080501D, 0.5 mm beads, one vial, Table 4 cycle, humid air and repeats per Table 5", "result": "5.0 × 10^0 per 100 mg"},
      {"measurement": "Average per 100 mg", "setting": "[1]; Run 11 NX1080501E, 0.5 mm beads, one vial, Table 4 cycle, humid air and repeats per Table 5", "result": "1.3 × 10^2 per 100 mg"},
      {"measurement": "Average per 100 mg", "setting": "[1]; Run 12 NX1080505A, 0.5 mm beads, one vial, Table 4 cycle, humid air and repeats per Table 5", "result": "2.2 × 10^1 per 100 mg"},
      {"measurement": "Average per 100 mg", "setting": "[1]; Run 13 NX1080505B, 0.5 mm beads, one vial, Table 4 cycle, humid air and repeats per Table 5", "result": "2.0 × 10^0 per 100 mg"},
      {"measurement": "Average per 100 mg", "setting": "[1]; Run 14 NX1080505C, 0.5 mm beads, one vial, Table 4 cycle, humid air and repeats per Table 5", "result": "4.0 × 10^−1 per 100 mg"},
      {"measurement": "Average per 100 mg", "setting": "[1]; Run 15 NX1080505D, 0.5 mm beads, one vial, Table 4 cycle, humid air and repeats per Table 5", "result": "8.0 × 10^0 per 100 mg"},
      {"measurement": "lethality", "setting": "spore population", "result": "acceptable lethality"}
    ]}
  ]
}
